Assay: molar heat capacity at constant pressure
Settings: 101.33 kPa, Liquid, heat bridge-scanning calorimeter

CCCCn1cc[n+](C)c1.F[P-](F)(F)(F)(F)F [1-butyl-3-methylimidazolium hexafluorophosphate]
Settings | molar heat capacity at constant pressure [J/K/mol]
480.79 K | 497.89
480.92 K | 498.17
481.06 K | 498.17
481.2 K | 498.17
481.5 K | 498.46
481.64 K | 498.74
481.78 K | 499.31
481.91 K | 498.74
482.05 K | 498.46
482.2 K | 498.46
482.34 K | 498.46
482.47 K | 498.46
482.61 K | 498.46
482.75 K | 498.46
482.89 K | 498.46
483.19 K | 498.46
483.32 K | 498.74
483.46 K | 499.02
483.6 K | 499.02
483.74 K | 499.31
483.87 K | 499.31
484.01 K | 499.31
484.15 K | 500.16
484.29 K | 500.16
484.59 K | 499.59
484.72 K | 499.59
484.86 K | 499.31
485 K | 499.59
485.14 K | 499.88
485.27 K | 499.59
485.41 K | 499.88
485.55 K | 499.59
485.69 K | 500.16
485.83 K | 500.45
485.96 K | 501.01
486.26 K | 500.73
486.4 K | 501.01
486.53 K | 501.01
486.67 K | 500.45
486.81 K | 500.16
486.95 K | 500.16
487.08 K | 500.45
487.22 K | 501.01
487.36 K | 500.73
487.66 K | 502.15
487.8 K | 501.58
487.94 K | 501.3
488.07 K | 501.01
488.21 K | 501.01
488.35 K | 501.87
488.48 K | 501.3
488.62 K | 501.01
488.77 K | 500.73
488.91 K | 501.3
489.05 K | 501.58
489.34 K | 501.01
489.48 K | 501.58
489.62 K | 501.3
489.75 K | 501.87
489.89 K | 501.3
490.03 K | 501.01
490.16 K | 501.3
490.3 K | 501.87
490.44 K | 501.01
490.74 K | 500.73
490.88 K | 501.3
491.02 K | 501.01
491.15 K | 501.01
491.29 K | 501.01
491.43 K | 501.01
491.56 K | 500.73
491.7 K | 501.3
491.84 K | 501.58
491.98 K | 501.3
492.11 K | 501.01
492.41 K | 501.3
492.55 K | 502.15
492.69 K | 501.87
492.82 K | 502.43
492.96 K | 502.72
493.1 K | 502.15
493.23 K | 501.87
493.37 K | 501.58
493.51 K | 501.3
493.81 K | 501.3
493.95 K | 502.43
494.09 K | 503.29
494.22 K | 502.72
494.36 K | 502.72
494.5 K | 502.72
494.64 K | 502.72
494.77 K | 502.72
494.91 K | 502.72
495.05 K | 502.72
495.2 K | 503.29
495.5 K | 502.72

— the NIST ThermoML archive (doi:10.1021/je034102r)
